{
  "source": "ChEMBL document CHEMBL4138123",
  "about": "“Design, synthesis and biological evaluation of novel pyrazolochalcones as potential modulators of PI3K/Akt/mTOR pathway and inducers of apoptosis in breast cancer cells” (Eur J Med Chem, 2017)",
  "format_in_all_cases": "functional",
  "key": {"NCI-H23 [1]": {"system": "NCI-H23", "assay": "Cytotoxicity against human NCI-H23 cells assessed as growth inhibition after 48 hrs by sulforhodamine B assay", "conditions": "NCI-H23, 48 h"}, "Hs-578T": {"system": "Hs-578T", "assay": "Cytotoxicity against human Hs 578T cells assessed as cell growth at 1 uM after 48 hrs by sulforhodamine B assay relative to control", "conditions": "read-out: Activity"}, "U-251": {"system": "U-251", "assay": "Cytotoxicity against human U251 cells assessed as cell growth at 0.1 uM after 48 hrs by sulforhodamine B assay relative to control", "conditions": "U-251, 48 h, read-out: Activity"}, "CCRF-CEM [2]": {"system": "CCRF-CEM", "assay": "Cytotoxicity against human CCRF-CEM cells assessed as cell growth at 100 uM after 48 hrs by sulforhodamine B assay relative to control", "conditions": "read-out: Activity"}, "SW-620 [3]": {"system": "SW-620", "assay": "Cytotoxicity against human SW620 cells assessed as cell growth at 0.01 uM after 48 hrs by sulforhodamine B assay relative to control", "conditions": "SW-620, 48 h, read-out: Activity"}, "HCT-15": {"system": "HCT-15", "assay": "Cytotoxicity against human HCT15 cells assessed as cell growth at 1 uM after 48 hrs by sulforhodamine B assay relative to control", "conditions": "HCT-15, 48 h, read-out: Activity"}, "RPMI-8226": {"system": "RPMI-8226", "assay": "Cytotoxicity against human RPMI8226 cells assessed as cell growth at 0.01 uM after 48 hrs by sulforhodamine B assay relative to control", "conditions": "RPMI-8226, 48 h, read-out: Activity"}, "NCI-H460": {"system": "NCI-H460", "assay": "Cytotoxicity against human NCI-H460 cells assessed as cell growth at 10 uM after 48 hrs by sulforhodamine B assay relative to control", "conditions": "NCI-H460, 48 h, read-out: Activity"}, "PC-3": {"system": "PC-3", "assay": "Cytotoxicity against human PC3 cells assessed as cell growth at 10 uM after 48 hrs by sulforhodamine B assay relative to control", "conditions": "PC-3, 48 h, read-out: Activity"}, "CCRF-CEM [4]": {"system": "CCRF-CEM", "assay": "Cytotoxicity against human CCRF-CEM cells assessed as growth inhibition after 48 hrs by sulforhodamine B assay"}, "HOP-62 [5]": {"system": "HOP-62", "assay": "Cytotoxicity against human HOP62 cells assessed as growth inhibition after 48 hrs by sulforhodamine B assay", "conditions": "HOP-62, 48 h"}, "HOP-62 [6]": {"system": "HOP-62", "assay": "Cytotoxicity against human HOP62 cells assessed as cell growth at 10 uM after 48 hrs by sulforhodamine B assay relative to control", "conditions": "HOP-62, 48 h, read-out: Activity"}, "MOLT-4": {"system": "MOLT-4", "assay": "Cytotoxicity against human MOLT4 cells assessed as cell growth at 1 uM after 48 hrs by sulforhodamine B assay relative to control", "conditions": "MOLT-4, 48 h, read-out: Activity"}, "SK-MEL-2": {"system": "SK-MEL-2", "assay": "Cytotoxicity against human SK-MEL-2 cells assessed as growth inhibition after 48 hrs by sulforhodamine B assay", "conditions": "SK-MEL-2, 48 h"}, "NCI-H522": {"system": "NCI-H522", "assay": "Cytotoxicity against human NCI-H522 cells assessed as cell growth at 100 uM after 48 hrs by sulforhodamine B assay relative to control", "conditions": "NCI-H522, 48 h, read-out: Activity"}, "IGROV-1": {"system": "IGROV-1", "assay": "Cytotoxicity against human IGROV1 cells assessed as cell growth at 100 uM after 48 hrs by sulforhodamine B assay relative to control", "conditions": "IGROV-1, 48 h, read-out: Activity"}, "786-0": {"system": "786-0", "assay": "Cytotoxicity against human 786-0 cells assessed as cell growth at 1 uM after 48 hrs by sulforhodamine B assay relative to control", "conditions": "786-0, 48 h, read-out: Activity"}, "HL-60(TB)": {"system": "HL-60(TB)", "assay": "Cytotoxicity against human HL-60(TB) cells assessed as cell growth at 10 uM after 48 hrs by sulforhodamine B assay relative to control", "conditions": "HL-60, 48 h, read-out: Activity"}, "NCI-H23 [7]": {"system": "NCI-H23", "assay": "Cytotoxicity against human NCI-H23 cells assessed as cell growth at 10 uM after 48 hrs by sulforhodamine B assay relative to control", "conditions": "NCI-H23, 48 h, read-out: Activity"}, "KM12": {"system": "KM12", "assay": "Cytotoxicity against human KM12 cells assessed as cell growth at 10 uM after 48 hrs by sulforhodamine B assay relative to control", "conditions": "KM12, 48 h, read-out: Activity"}, "M14": {"system": "M14", "assay": "Cytotoxicity against human M14 cells assessed as cell growth at 10 uM after 48 hrs by sulforhodamine B assay relative to control", "conditions": "M14, 48 h, read-out: Activity"}, "OVCAR-3 [8]": {"system": "OVCAR-3", "assay": "Cytotoxicity against human OVCAR3 cells assessed as cell growth at 0.1 uM after 48 hrs by sulforhodamine B assay relative to control", "conditions": "OVCAR-3, 48 h, read-out: Activity"}, "MDA-MB-468": {"system": "MDA-MB-468", "assay": "Cytotoxicity against human MDA-MB-468 cells assessed as growth inhibition after 48 hrs by sulforhodamine B assay", "conditions": "MDA-MB-468, 48 h"}, "UO-31": {"system": "UO-31", "assay": "Cytotoxicity against human UO31 cells assessed as cell growth at 0.1 uM after 48 hrs by sulforhodamine B assay relative to control", "conditions": "UO-31, 48 h, read-out: Activity"}, "NCI-H322M": {"system": "NCI-H322M", "assay": "Cytotoxicity against human NCI-H322M cells assessed as cell growth at 10 uM after 48 hrs by sulforhodamine B assay relative to control", "conditions": "read-out: Activity"}, "MCF7": {"system": "MCF7", "assay": "Cytotoxicity against human MCF7 cells assessed as cell growth at 0.01 uM after 48 hrs by sulforhodamine B assay relative to control", "conditions": "MCF7, 48 h, read-out: Activity"}, "T47D": {"system": "T47D", "assay": "Cytotoxicity against human T47D cells assessed as cell growth at 0.1 uM after 48 hrs by sulforhodamine B assay relative to control", "conditions": "read-out: Activity"}, "SF-268": {"system": "SF-268", "assay": "Cytotoxicity against human SF268 cells assessed as growth inhibition after 48 hrs by sulforhodamine B assay", "conditions": "SF-268, 48 h"}, "SN12C": {"system": "SN12C", "assay": "Cytotoxicity against human SN12C cells assessed as cell growth at 100 uM after 48 hrs by sulforhodamine B assay relative to control", "conditions": "read-out: Activity"}, "SK-MEL-28": {"system": "SK-MEL-28", "assay": "Cytotoxicity against human SK-MEL-28 cells assessed as cell growth at 10 uM after 48 hrs by sulforhodamine B assay relative to control", "conditions": "SK-MEL-28, 48 h, read-out: Activity"}, "SNB-19": {"system": "SNB-19", "assay": "Cytotoxicity against human SNB19 cells assessed as cell growth at 10 uM after 48 hrs by sulforhodamine B assay relative to control", "conditions": "SNB-19, 48 h, read-out: Activity"}, "SR": {"system": "SR", "assay": "Cytotoxicity against human SR cells assessed as cell growth at 1 uM after 48 hrs by sulforhodamine B assay relative to control", "conditions": "read-out: Activity"}, "SW-620 [9]": {"system": "SW-620", "assay": "Cytotoxicity against human SW620 cells assessed as cell growth at 100 uM after 48 hrs by sulforhodamine B assay relative to control", "conditions": "SW-620, 48 h, read-out: Activity"}, "MDA-MB-231": {"system": "MDA-MB-231", "assay": "Cytotoxicity against human MDA-MB-231 cells assessed as cell growth at 1 uM after 48 hrs by sulforhodamine B assay relative to control", "conditions": "MDA-MB-231, 48 h, read-out: Activity"}, "OVCAR-3 [10]": {"system": "OVCAR-3", "assay": "Cytotoxicity against human OVCAR3 cells assessed as cell growth at 1 uM after 48 hrs by sulforhodamine B assay relative to control", "conditions": "OVCAR-3, 48 h, read-out: Activity"}, "[11]": {"conditions": "read-out: LC50 (the source's name)"}},
  "data": [
    {"smiles": "COc1cc(-c2cc(/C=C/C(=O)c3ccc(Cl)c(Cl)c3)[nH]n2)cc(OC)c1OC", "values": [
      {"measurement": "TGI", "setting": "NCI-H23 [1]", "value": "> 100", "unit": "µM"},
      {"measurement": "CC50", "setting": "NCI-H23 [1]; [11]", "value": "> 100", "unit": "µM"},
      {"measurement": "growth at 1 µM", "setting": "Hs-578T", "value": 104, "unit": "%"},
      {"measurement": "growth at 0.1 µM", "setting": "U-251", "value": 95, "unit": "%"},
      {"measurement": "growth at 100 µM", "setting": "CCRF-CEM [2]", "value": -15, "unit": "%"},
      {"measurement": "growth at 0.01 µM", "setting": "SW-620 [3]", "value": 98, "unit": "%"},
      {"measurement": "growth at 1 µM", "setting": "HCT-15", "value": 86, "unit": "%"},
      {"measurement": "growth at 0.01 µM", "setting": "RPMI-8226", "value": 100, "unit": "%"},
      {"measurement": "growth at 10 µM", "setting": "NCI-H460", "value": 31, "unit": "%"},
      {"measurement": "growth at 10 µM", "setting": "PC-3", "value": 39, "unit": "%"},
      {"measurement": "LC50 (concentration killing 50% of cells)", "setting": "CCRF-CEM [4]", "value": "> 100", "unit": "µM"},
      {"measurement": "TGI", "setting": "CCRF-CEM [4]", "value": 23.5, "unit": "µM"},
      {"measurement": "LC50", "setting": "HOP-62 [5]", "value": 42.6, "unit": "µM"},
      {"measurement": "TGI", "setting": "HOP-62 [5]", "value": 7.66, "unit": "µM"},
      {"measurement": "growth at 10 µM", "setting": "HOP-62 [6]", "value": -9, "unit": "%"},
      {"measurement": "growth at 1 µM", "setting": "MOLT-4", "value": 97, "unit": "%"},
      {"measurement": "LC50 (concentration killing 50% of cells)", "setting": "SK-MEL-2", "value": 83.8, "unit": "µM"},
      {"measurement": "TGI", "setting": "SK-MEL-2", "value": 34.1, "unit": "µM"},
      {"measurement": "growth at 100 µM", "setting": "NCI-H522", "value": -65, "unit": "%"},
      {"measurement": "growth at 100 µM", "setting": "IGROV-1", "value": 9, "unit": "%"},
      {"measurement": "growth at 1 µM", "setting": "786-0", "value": 91, "unit": "%"},
      {"measurement": "growth at 10 µM", "setting": "HL-60(TB)", "value": 43, "unit": "%"},
      {"measurement": "growth at 10 µM", "setting": "NCI-H23 [7]", "value": 79, "unit": "%"},
      {"measurement": "growth at 10 µM", "setting": "KM12", "value": 19, "unit": "%"},
      {"measurement": "growth at 10 µM", "setting": "M14", "value": 61, "unit": "%"},
      {"measurement": "growth at 0.1 µM", "setting": "OVCAR-3 [8]", "value": 105, "unit": "%"},
      {"measurement": "GI50", "setting": "MDA-MB-468", "value": 1.98, "unit": "µM"},
      {"measurement": "LC50", "setting": "MDA-MB-468", "value": "> 100", "unit": "µM"},
      {"measurement": "TGI", "setting": "MDA-MB-468", "value": 7.22, "unit": "µM"},
      {"measurement": "growth at 0.1 µM", "setting": "UO-31", "value": 85, "unit": "%"},
      {"measurement": "growth at 10 µM", "setting": "NCI-H322M", "value": 59, "unit": "%"},
      {"measurement": "growth at 0.01 µM", "setting": "MCF7", "value": 105, "unit": "%"},
      {"measurement": "growth at 0.1 µM", "setting": "T47D", "value": 87, "unit": "%"},
      {"measurement": "TGI", "setting": "SF-268", "value": 63.3, "unit": "µM"},
      {"measurement": "CC50", "setting": "SF-268; [11]", "value": "> 100", "unit": "µM"},
      {"measurement": "growth at 100 µM", "setting": "SN12C", "value": 11, "unit": "%"},
      {"measurement": "growth at 10 µM", "setting": "SK-MEL-28", "value": 73, "unit": "%"},
      {"measurement": "growth at 10 µM", "setting": "SNB-19", "value": 50, "unit": "%"},
      {"measurement": "growth at 1 µM", "setting": "SR", "value": 23, "unit": "%"},
      {"measurement": "growth at 100 µM", "setting": "SW-620 [9]", "value": -5, "unit": "%"},
      {"measurement": "growth at 1 µM", "setting": "MDA-MB-231", "value": 89, "unit": "%"},
      {"measurement": "growth at 1 µM", "setting": "OVCAR-3 [10]", "value": 102, "unit": "%"}
    ]}
  ]
}
